How the values were obtained:
Type in all cases: physicochemical
[1] = Sedimentation (demixing) of natamycin dispersions in tapwater in glass tubes; details: 1.5 g Delvocid equivalent in 1000 g tapwater, glass tube
Protocol: This example describes the test performed to analyze the sedimentation differences. 1.5 g Delvocid® was added to 998.5 gram tapwater and dispersed well by an electric top stirrer, type RW 20 DZM, from Janke & Kunkel equipped with a rushton stirrer. 1.5 gram of Delvocid® made according to Example 1 was mixed with tapwater to a final weight of 1000 gram by an electric top stirrer, type RW 20 DZM, from Janke & Kunkel equipped with a rushton stirrer. Both homogeneous mixtures were poured in glass tubes and observed in time on demixing.

[2] = Crystal form stability of needle-shaped crystal suspension on storage; details: 6 months of storage of suspension at 10° C.
Description: As discussed above a sediment of the needle-shaped crystals of the present invention can be easily brought back in the suspended state without exclusive stirring or shaking. Another advantage of the needle-shaped crystals is that this crystal form is stable.

[3] = Stability of recrystallized natamycin dispersion (rest activity by HPLC); details: for Found natamycin activity (%): dispersion made according to Example 1
Protocol: This example describes the method that was used to analyze the amount of active natamycin in a water-based mixture of several components.
The method used was a HPLC analysis based on the International Dairy Federation (Provisional IDF Standard 140, 1992) with a Lichrosorb RP 8 column.
Detection was at 303 nm UV with a range of 0.1-4 mg/L with an injection volume of 20 μl. Sample preparation was carried out by weighing 2 g of prepared formulation with an accuracy of 1 mg in a measuring flask. 4 ml demineralized water (demiwater) was added and the mixture was stirred for 15 minutes to get a homogeneous suspension.
Subsequently, 80 ml ethanol was added and the mixture was stirred for 10 minutes.
After ultrasonic treatment, the solution was filled up to 100 ml with demiwater and then diluted and/or filtered (0.2 μm) before injecting. The amount of active natamycin was calculated as ppm against a series of standards.
This example describes the stability of recrystallized natamycin, a natamycin dispersion is made according to Example 1 and followed in time on stability.

[4] = Resuspendability of settled natamycin in a low viscous dispersion; details: not touched for 26 days, glass tubes turned around once
Protocol: This example describes the test that was performed to analyze the resuspendability of settled natamycin in a low viscous dispersion. 1.5 gram Delvocid® was added to 998.5 gram tapwater and dispersed well by an electric top stirrer, type RW 20 DZM, from Janke & Kunkel equipped with a rushton stirrer. An amount equal to 1.5 gram Delvocid® made according to Example 1 was mixed with tapwater to a final weight of 1000 gram by an electric top stirrer, type RW 20 DZM, from Janke & Kunkel equipped with a rushton stirrer. Both homogeneous mixtures were poured in glass tubes and not touched for 26 days.

[5] = Dissolution of natamycin in water as a function of pH
Protocol: According to another aspect of the present invention, there is provided a process to produce the needle-shaped crystals of the invention. In the first step of this process, natamycin is dissolved in an aqueous solution. The solution comprises at least 80 wt %, preferably at least 90 wt % more preferably at least 95 wt % and still more preferably at least 98 wt % and preferably at least 99 wt % water as solvent. […] Preferably, natamycin is dissolved at a pH ranged between 10 and 14, more preferably at a pH ranged between 11 and 13. In general, natamycin of a purity of more than 90 wt % (including hydrate) preferably of a purity of 95% is used.

| SMILES | demixing observed ([1]; time 0 minutes) | demixing observed ([1]; time 40 minutes) | demixing observed ([1]; time 60 minutes) | demixing observed ([1]; time 110 minutes) | demixing observed ([1]; time 180 minutes) | demixing observed ([1]; time 4320 minutes) | crystal form and mean length after storage [2] | stability ([3]; for at least six months) | Found natamycin activity (%) ([3]; incubation time 0 months) | Found natamycin activity (%) ([3]; incubation time 1 month) | Found natamycin activity (%) ([3]; incubation time 2 months) | Found natamycin activity (%) ([3]; incubation time 4 months) | Found natamycin activity (%) ([3]; incubation time 6 months) | resuspendability of pellet [4] | dissolution in water ([5]; low pH (lower than 4.0) or high pH (above 10.0)) | dissolution in water ([5]; neutral pH) |
| --- | --- | --- | --- | --- | --- | --- | --- | --- | --- | --- | --- | --- | --- | --- | --- | --- |
| C[C@@H]1C/C=C/C=C/C=C/C=C/[C@H](O[C@@H]2O[C@H](C)[C@@H](O)[C@H](N)[C@@H]2O)C[C@@H]2O[C@](O)(C[C@@H](O)C[C@H]3O[C@@H]3/C=C/C(=O)O1)C[C@H](O)[C@H]2C(=O)O [Recrystallized natamycin, natamycin] | Homogeneous | Homogeneous | Homogeneous | Homogeneous | Homogeneous | Start demixing observed | still contained needle-shaped crystals having the same mean length | very high | 100% | 100% | 99% | 100% | 98% | almost completely resuspended | – | – |
| C[C@@H]1C/C=C/C=C/C=C/C=C/[C@H](O[C@@H]2O[C@H](C)[C@@H](O)[C@H](N)[C@@H]2O)C[C@@H]2O[C@](O)(C[C@@H](O)C[C@H]3O[C@@H]3/C=C/C(=O)O1)C[C@H](O)[C@H]2C(=O)O [Standard natamycin, natamycin] | Homogeneous | Start demixing observed | Two layers observed | Pellet formation | Pellet formation | Pellet and clear top layer | – | – | – | – | – | – | – | remained a solid pellet | – | – |
| C[C@@H]1C/C=C/C=C/C=C/C=C/[C@H](O[C@@H]2O[C@H](C)[C@@H](O)[C@H](N)[C@@H]2O)C[C@@H]2O[C@](O)(C[C@@H](O)C[C@H]3O[C@@H]3/C=C/C(=O)O1)C[C@H](O)[C@H]2C(=O)O [natamycin] | – | – | – | – | – | – | – | – | – | – | – | – | – | – | easily dissolve | hardly dissolve |

— patent publication US9615581B2, “Stable needle-shaped crystals of natamycin” (DSM IP ASSETS B.V., priority 2004, dated 2017)
